Source: patent US8067614B2, “N-substituted (benzoimidazol-2-yl)phenylamines, processes for their preparation, their use as a medicament or diagnostic aid, and a medicament comprising them” (Sanofi-Aventis Deutschland GmbH, priority 2003, dated 2011)
Counter-ions that a name gives are not always drawn.

Tests used:
rNHE3 = biological target: T1, rNHE3 (Rattus norvegicus, UniProt P26433); assay: Recovery of intracellular pH after acidification (BCECF fluorescence) in LAP1 fibroblasts; assay type: cell-based
T1 construct: expressed in transfected cells; host or cells: LAP1 cells (fibroblasts)
Procedure: In this test, the recovery in the intracellular pH (pHi) after an acidification was ascertained, which is initiated if the NHE3 is capable of functioning, even under bicarbonate-free conditions. For this purpose, the pHi was determined using the pH-sensitive fluorescent dye BCECF (Calbiochem, the precursor BCECF-AM is employed). The cells (fibroblasts, LAP1 cells) were initially loaded with BCECF. The BCECF fluorescence was determined in a “Ratio Fluorescence Spectrometer” (Photon Technology International, South Brunswick, N.J., USA) at excitation wavelengths of 505 and 440 nm and an emission wavelength of 535 nm and converted into the pHi using calibration curves. The cells were incubated in NH4Cl buffer (pH 7.4) (NH4Cl buffer: 115 mM NaCl, 20 mM NH4Cl, 5 mM KCl, 1 mM CaCl2, 1 mM MgSO4, 20 mM Hepes, 5 mM glucose, 1 mg/ml BSA; a pH of 7.4 is adjusted with 1 M NaOH) even during the BCECF loading. The intracellular acidification was induced by adding 975 μl of an NH4Cl-free buffer (see below) to 25 μl aliquots of the cells incubated in NH4Cl buffer. The subsequent rate of pH recovery was recorded for three minutes. To calculate the inhibitory potency of the tested substances, the cells were initially investigated in buffers with which a complete or absolutely no pH recovery took place. For complete pH recovery (100%), the cells were incubated in Na^+-containing buffer (133.8 mM NaCl, 4.7 mM KCl, 1.25 mM CaCl2, 1.25 mM MgCl2, 0.97 mM Na2HPO4, 0.23 mM NaH2PO4, 5 mM Hepes, 5 mM glucose, a pH of 7.0 is adjusted with 1 M NaOH). To determine the 0% value, the cells were incubated in an Na^+-free buffer (133.8 mM choline chloride, 4.7 mM KCl, 1.25 mM CaCl2, 1.25 mM MgCl2, 0.97 mM K2HPO4, 0.23 mM KH2PO4, 5 mM Hepes, 5 mM glucose, a pH of 7.0 is adjusted with 1 M KOH). The substances to be tested were made up in the Na^+-containing buffer. The recovery of the intracellular pH at each test concentration of a substance was expressed as a percentage of the maximum recovery. The IC50 value for the particular substance for the individual NHE subtypes was calculated from the pH recovery percentages using the Sigma-Plot program.

imidazoline I1 receptor = conditions: Ernsberger et al, Eur. J. Pharmacol. 134, 1, 1987; cited from earlier work
[1] = mediated by alpha2 and I1 receptors; Ernsberger et al.; cited from earlier work
[2] = test system: adrenergic alpha2 receptor; conditions: Ernsberger et al, Eur. J. Pharmacol. 134, 1, 1987; cited from earlier work
NHE3 = conditions: M. Donowitz et al., Am. J. Physiol. 276; cited from earlier work

T1 sequence (P26433 29-831): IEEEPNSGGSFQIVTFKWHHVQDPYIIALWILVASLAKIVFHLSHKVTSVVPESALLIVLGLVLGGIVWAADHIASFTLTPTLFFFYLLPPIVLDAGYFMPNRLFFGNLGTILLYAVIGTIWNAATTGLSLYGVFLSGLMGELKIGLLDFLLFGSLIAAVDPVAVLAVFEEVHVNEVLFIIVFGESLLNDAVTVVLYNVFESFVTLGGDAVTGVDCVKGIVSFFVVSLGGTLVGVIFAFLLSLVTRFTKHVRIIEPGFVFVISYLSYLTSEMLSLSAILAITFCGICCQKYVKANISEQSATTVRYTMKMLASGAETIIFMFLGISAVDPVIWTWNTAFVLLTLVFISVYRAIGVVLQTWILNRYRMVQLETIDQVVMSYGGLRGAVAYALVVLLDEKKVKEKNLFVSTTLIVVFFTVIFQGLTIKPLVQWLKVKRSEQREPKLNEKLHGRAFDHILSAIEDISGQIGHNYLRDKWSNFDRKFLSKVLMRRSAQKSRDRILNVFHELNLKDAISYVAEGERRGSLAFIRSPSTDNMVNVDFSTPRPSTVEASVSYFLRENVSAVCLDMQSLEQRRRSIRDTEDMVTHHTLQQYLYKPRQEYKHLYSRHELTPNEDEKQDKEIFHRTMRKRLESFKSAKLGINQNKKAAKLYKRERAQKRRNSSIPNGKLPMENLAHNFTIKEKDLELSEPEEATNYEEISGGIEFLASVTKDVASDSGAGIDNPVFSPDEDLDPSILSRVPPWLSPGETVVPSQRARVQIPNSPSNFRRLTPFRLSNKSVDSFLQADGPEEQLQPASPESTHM

| Compound | IC50 (rNHE3) [µM] | other results |
| --- | --- | --- |
| CC(C)N(c1nc2ccccc2[nH]1)c1c(Cl)cccc1Cl [Example 3, (1H-Benzoimidazol-2-yl)(2,6-dichlorophenyl)isopropylamine] | 9.3 |  |
| Clc1cccc(Cl)c1N(c1nc2ccccc2[nH]1)C1CCCC1 [Example 6, (1H-Benzoimidazol-2-yl)cyclopentyl(2,6-dichlorophenyl)amine] | 8.3 |  |
| Clc1cccc(Cl)c1N=C1NCCN1 [Clonidine] |  | affinity for the imidazoline I1 receptor (imidazoline I1 receptor): high affinity; blood pressure-lowering effect [1]: strong blood pressure-lowering effect; affinity for the adrenergic alpha2 receptor [2]: high affinity |
| CC(C)[C@@H](CC[C@@H](C)[C@H]1CC[C@H]2[C@@H]3[C@H](O)C[C@H]4C[C@@H](NCCCNCCCCN)CC[C@]4(C)[C@H]3CC[C@]12C)OS(=O)(=O)O [Squalamine] |  | time to maximum strength of effect as NHE3 inhibitor (NHE3): only after one hour |

Continued by falling IC50 (rNHE3), values first:

| IC50 (rNHE3) [µM] | Compound | other results |
| --- | --- | --- |
| 3.3 | CN(c1nc2cc(F)ccc2[nH]1)c1c(Cl)cccc1Cl [Example 4, (2,6-Dichlorophenyl)(5-fluoro-1H-benzoimidazol-2-yl)methylamine] |  |
| 1.5 | C=CCN(c1nc2ccccc2[nH]1)c1c(Cl)cccc1Cl [Example 5, Allyl(1H-benzoimidazol-2-yl)(2,6-dichlorophenyl)amine] |  |
| 0.57 | CCN(c1nc2ccccc2[nH]1)c1c(Cl)cccc1Cl [Example 1, (1H-Benzoimidazol-2-yl)(2,6-dichlorophenyl)ethylamine] |  |
| 0.53 | CN(c1nc2ccccc2[nH]1)c1c(Cl)cccc1Cl [Example 2, (1H-Benzoimidazol-2-yl)(2,6-dichlorophenyl)methylamine hydrochloride] |  |
